Source: the NIST ThermoML archive (doi:10.1021/je800026p)

Assay: xn = mol fraction of the nth substance listed
Conditions: 101 kPa, Liquid; for speed of sound: Sing-around technique in a fixed-path interferometer; for mass density: Vibrating tube method

CCCCCCOCCOCCO [2-(2-hexyloxyethoxy)ethanol] + CCCCNCCCC
Conditions | mass density, 288.15 K [kg/m3] | mass density, 293.15 K [kg/m3] | speed of sound, 288.15 K [m/s] | speed of sound, 293.15 K [m/s] | speed of sound, 298.15 K [m/s]
x1 = 0.0974 | 787.886 | 783.751 | 1301.4 | 1282.3 | 1262.9
x1 = 0.1441 | 798.114 | 793.988 | 1308.1 | 1289.2 | 1270.5
x1 = 0.1908 | 808.103 | 804 | 1314.8 | 1296 | 1277.8
x1 = 0.253 | 820.984 | 816.934 | 1323.5 | 1304.8 | 1287
x1 = 0.2986 | 830.092 | 826.059 | 1329.8 | 1311.2 | 1293.6
x1 = 0.3606 | 842 | 837.97 | 1338 | 1319.7 | 1302.1
x1 = 0.4018 | 849.578 | 845.585 | 1343.4 | 1325.2 | 1307.6
x1 = 0.4584 | 859.635 | 855.602 | 1350.4 | 1332.6 | 1315
x1 = 0.5091 | 868.247 | 864.218 | 1356.7 | 1339 | 1321.3
x1 = 0.5435 | 873.936 | 869.891 | 1360.8 | 1343.2 | 1325.7
x1 = 0.587 | 880.891 | 876.847 | 1365.8 | 1348.4 | 1330.9
x1 = 0.6097 | 884.459 | 880.409 | 1368.4 | 1351 | 1333.6
x1 = 0.6572 | 891.716 | 887.648 | 1373.6 | 1356.4 | 1339
x1 = 0.7023 | 898.412 | 894.343 | 1378.3 | 1361.3 | 1344.1
x1 = 0.7451 | 904.586 | 900.53 | 1382.7 | 1365.7 | 1348.6
x1 = 0.8144 | 914.195 | 910.151 | 1389.4 | 1372.4 | 1355.5
x1 = 0.8675 | 921.188 | 917.168 | 1394.2 | 1377.2 | 1360.3
x1 = 0.9083 | 926.329 | 922.317 | 1397.7 | 1380.6 | 1363.7
x1 = 0.9414 | 930.322 | 926.329 | 1400.4 | 1383.2 | 1366.2
